Test results as given in patent US20020104106A1, “Non-mammalian transgenic animal model for cellular proliferative diseases” (priority 1999, published 2002).

System: tumor fly model
Assay: Screening assay: extracts fed to v-myb tumor flies, delay of tumor progression
Type: in vivo, Drosophila melanogaster
Details: extract concentration fed to the larva/fly that delayed tumor progression by 20% or more
Method: In the screening methods of the subject invention, a quantity of a candidate agent is generally orally administered to the fly. Following oral administration, the affect of the candidate agent on the metastatic tumors (or appearance thereof) of the fly is determined, typically by comparison with a control (i.e. a transgenic fly to which the candidate agent has not been administered). The affect of the candidate agent is determined by determining whether one or more of the phenotypic characteristics of the neoplastic condition are exacerbated or ameliorated in the test fly as compared to the control fly, where characteristics that are monitored include tumor growth, tumor metastasis, and the like. The candidate agent is generally orally administered to the fly by mixing the agent into the fly nutrient medium, e.g. water, aqueous solution with additional nutrient agents, etc., and placing the medium in the presence of the fly, (either the larva or adult fly, usually the adult fly) such that the fly feeds on the medium. Generally a plurality of assay mixtures are run in parallel with different agent concentrations to obtain a differential response to the various concentrations of candidate agent. Typically, one of these concentrations serves as a negative control, i.e. no compound. […]

## CC(C)=CCC/C(C)=C/C=C/C(C)=C/C=C/C(C)=C/C=C/C=C(C)/C=C/C=C(C)/C=C/C=C(\C)CCC=C(C)C [Lycopene]
  Positive antitumor activity dose range: .01%-100%
